Results taken from patent US4419517A, “4a-Aryl-trans-decahydroisoquinolines” (E. I. Du Pont de Nemours & Co., priority 1975, dated 1983).

Experiments:
Straub tail = Straub tail in mice; assay type: in vivo; conditions: dose not stated
Description: Included in this group are the compounds of examples 9, 10, 16 and 18.

[1] = J. Am. Chem. Soc. 72, 712 (1950); cited from earlier work
[2] = tested on: phenylquinone-induced stretching or writhing syndrome; test: Phenylquinone writhing test, oral, female white mice (modified from Siegmund et al.); assay type: in vivo; conditions: for ED50: Mus musculus, po, suspended in 1% Methocel, fasted female white mice, phenylquinone i.p. 23 or 30 min later, observed 10 min, moving average method, read-out: oral ED50 (effective analgesic dose for 50% of the mice); for analgesic activity of the optical isomers, in words: dextro and laevo forms; for ED50 (optical isomers, phenylquinone writhing test described in Example A): optical isomers of N-methyl-4a-phenyl-trans-decahydroisoquinoline, mice, test as in Example A
Procedure: In a standard mouse test modified from Siegmund et al. [Proc. Soc. Exp. Biol. Med. 95, 729 (1957)], a test compound suspended in 1% Methocel® was given orally to fasted (17-21 hours) female white mice, 5-20 animals per double blind test. Aqueous (0.01%) phenyl-p-benzoquinone (phenylquinone) was injected intraperitoneally at 23 or 30 minutes later using 0.25 ml per mouse. […] The effective analgesic dose for 50% of the mice (ED50) was calculated by the moving average method of Weil [Biometrics 8, 249 (1952)].The oral ED50 dosages of several compounds of the invention are: […]

| Structure (SMILES) | Straub tail in mice (evidence for appearing to be nonaddicting) (Straub tail) | ED50 [2] [mg/kg] | further results |
| --- | --- | --- | --- |
| Oc1cccc([C@@]23CCCC[C@H]2CN(CC2CC2)CC3)c1 (relative stereo) [Example 10, N-Cyclopropylmethyl-4a-(m-hydroxyphenyl)-trans-decahydroisoquinoline] | do not produce the Straub tail | – | – |
| CN1CC[C@]2(c3ccccc3)CCCC[C@@H]2C1 (relative stereo) [N-methyl-4a-phenyl-cis-decahydroisoquinoline] | – | – | analgesic activity [1]: low analgesic activity |
| CN1CC[C@]2(c3cccc(O)c3)CCCC[C@H]2C1 (relative stereo) [Example 4, N-methyl-4a-(m-hydroxyphenyl)-trans-decahydroisoquinoline] | – | 2.3 | – |
| COc1cccc(C23CCN(CC4CC4)CC2CCC(C)C3)c1 (stereo not drawn) [Example 18, N-cyclopropylmethyl-4a-(m-methoxyphenyl)-6-methyl-trans-decahydroisoquinoline] | do not produce the Straub tail | – | – |
| CN1CC[C@@]2(c3ccccc3)CCCC[C@@H]2C1 (relative stereo) [Laevo (Ex. 2H-1), laevo-N-Methyl-4a-phenyl-trans-decahydroisoquinoline] | – | – | analgesic activity of the optical isomers, in words ([2]; phenylquinone writhing test): active; ED50 (optical isomers, phenylquinone writhing test described in Example A) [2]: 23.0 mg/kg |
| CCCCCCN1CC[C@]2(c3cccc(O)c3)CCCC[C@H]2C1 (relative stereo) [Example 16, N-(n-Hexyl)-4a-(m-hydroxyphenyl)-trans-decahydroisoquinoline] | do not produce the Straub tail | – | – |
| CN1CC[C@@]2(c3ccccc3)CCCC[C@@H]2C1 (relative stereo) [Dextro (Ex. 2H-2), dextro-N-Methyl-4a-phenyl-trans-decahydroisoquinoline] | – | – | analgesic activity of the optical isomers, in words ([2]; phenylquinone writhing test): active; analgesic effectiveness of dextro form compared with laevo form ([2]; dextro vs laevo form, phenylquinone writhing test): significantly more effective than the laevo form; ED50 (optical isomers, phenylquinone writhing test described in Example A) [2]: 3.5 mg/kg |
| COc1cccc([C@@]23CCCC[C@H]2CN(C)CC3)c1 (relative stereo) [Example 3-E, N-Methyl-4a-(m-methoxyphenyl)-trans-decahydroisoquinoline] | – | 3 | – |
| COc1cccc([C@@]23CCCC[C@H]2CN(CC2CC2)CC3)c1 (relative stereo) [Example 9, N-Cyclopropylmethyl-4a-(m-methoxyphenyl)-trans-decahydroisoquinoline] | do not produce the Straub tail | 8 | – |
